Assay results: patent publication US8318914B2, “Elongases and methods for producing polyunsaturated fatty acids in transgenic organisms” (priority 2007, dated 2012)
Read-outs that look alike come from different tables or passages of the source.

What was measured:
D9Elo(Ro) = assay type: cell-based, Rhizopus oryzae; conditions: 250 μM fatty acid fed to transformed yeast INVSC-1, 12 h induction medium
Protocol: Positive colonies were identified by PCR. […] In parallel, the empty vector pYES2.1/V5-His-TOPO was transformed in the abovedescribed manner into competent yeast cells of the strain INVSC-1. […] The specificity and activity of the gene to be characterized can be determined with reference to the added fatty acids.
(§1) The yeast cells from the main cultures were harvested by centrifugation (100×g, 5 min, 20° C.) and washed with 100 mM NaHCO3, pH 8.0 to remove residual medium and fatty acids. Starting with the yeast cell sediments, fatty acid methyl esters (FAMEs) were prepared by acid methanolysis. To this end, the cell sediments were incubated for one hour at 80° C. together with 2 ml of 1 N methanolic sulfuric acid and 2% (v/v) of dimethoxypropane. The FAMEs were extracted twice with petroleum ether (PE). To remove nonderivatized fatty acids, the organic phases were washed in each case once with 2 ml of 100 mM NaHCO3, pH 8.0 and 2 ml of distilled water. Thereafter, the PE phases were dried with Na2SO4, evaporated under argon and taken up in 100 μl of PE. […] The conditions for the GLC analysis are as follows: the oven temperature was programmed from 50° C. to 250° C. with an increment of 5° C./min and finally 10 min at 250° C. (holding).
(§2) The signals are identified by comparing the retention times with corresponding fatty acid standards (Sigma). […] Biochem. Biophys.

[1] = test system: yeast strain INVSC-1 with empty vector pYES2.1/V5-His-TOPO; assay: Vector control of Example 5: yeast with empty vector pYES2.1/V5-His-TOPO fed fatty acids; assay type: cell-based; conditions: 250 μM fatty acid fed to yeast INVSC-1, 12 h induction medium
Protocol: Plasmid pYES-D9Elo(Ro) was transformed into the yeast strain INVSC-1 (Invitrogen) following the manufacturer's instructions and selected on plates with DOB-U agar on the basis of uracil auxotrophy. Positive colonies were identified by PCR. To this end, in each case 1 μl of defrosted cells, 200 μM dNTPs, 2.5 U Taq polymerase and 100 pmol of each primer were used to carry out in a total volume of 50 μl. The PCR conditions were as follows: first denaturation at 95° C. for 5 minutes, followed by 30 cycles of 30 seconds at 94° C., 1 minute at 55° C. and 2 minutes at 72° C., and a last elongation step for 10 minutes at 72° C. In parallel, the empty vector pYES2.1/V5-His-TOPO was transformed in the abovedescribed manner into competent yeast cells of the strain INVSC-1. Yeast cells with the plasmid pYES-D9Elo(Ro) and pYES2.1/V5-His-TOPO were incubated for 12 h in liquid DOB-U medium at 28° C., 200 rpm, and then for a further 12 h in induction medium (DOB-U+2% (w/v) galactose+2% (w/v) raffinose) and 250 μM of fatty acids added to the medium. The specificity and activity of the gene to be characterized can be determined with reference to the added fatty acids.
The yeast cells from the main cultures were harvested by centrifugation (100×g, 5 min, 20° C.) and washed with 100 mM NaHCO3, pH 8.0 to remove residual medium and fatty acids. Starting with the yeast cell sediments, fatty acid methyl esters (FAMEs) were prepared by acid methanolysis. To this end, the cell sediments were incubated for one hour at 80° C. together with 2 ml of 1 N methanolic sulfuric acid and 2% (v/v) of dimethoxypropane. The FAMEs were extracted twice with petroleum ether (PE). To remove nonderivatized fatty acids, the organic phases were washed in each case once with 2 ml of 100 mM NaHCO3, pH 8.0 and 2 ml of distilled water. Thereafter, the PE phases were dried with Na2SO4, evaporated under argon and taken up in 100 μl of PE. The samples were separated on a DB-23 capillary column (30 m, 0.25 mm, 0.25 μm, Agilent) in a Hewlett-Packard 6850 gas chromatograph equipped with flame ionization detector. The conditions for the GLC analysis are as follows: the oven temperature was programmed from 50° C. to 250° C. with an increment of 5° C./min and finally 10 min at 250° C. (holding).
The signals are identified by comparing the retention times with corresponding fatty acid standards (Sigma). The methodology is described for example in Napier and Michaelson, 2001, Lipids. 36(8):761-766; Sayanova et al., 2001, Journal of Experimental Botany. 52(360):1581-1585, Sperling et al., 2001, Arch. Biochem. Biophys. 388(2):293-298 and Michaelson et al., 1998, FEBS Letters. 439(3):215-218.

D6Elo(Pir) = assay: Yeast feeding assay: elongation of fed fatty acids by yeast expressing pYES-D6Elo(Pir), GC analysis of FAMEs; assay type: cell-based, Pythium irregulare; conditions: for Elongation efficiency in percent, pYES-D6Elo(Pir): 250 μM fatty acid fed to transformed yeast INVSC-1, 12 h induction medium, (area product/area substrate + product)*100
Protocol: (§3) Plasmid pYES-d6Elo(Pir) was then transformed into the yeast strain INVSC-1 (Invitrogen) following the manufacturer's instructions and selected on plates with DOB-U agar on the basis of uracil auxotrophy. Positive colonies were identified by PCR. To this end, in each case 1 μl of defrosted cells, 200 μM dNTPs, 2.5 U Taq-polymerase and 100 pmol of each primer were used to carry out in a total volume of 50 μl. The PCR conditions were as follows: first denaturation at 95° C. for 5 minuten, followed by 30 cycles of 30 seconds at 94° C., 1 minute at 55° C. and 2 minutes at 72° C., and a last elongation step for 10 minutes at 72° C. In parallel, the empty vector pYES2.1/V5-His-TOPO was transformed in the abovedescribed manner into competent yeast cells of the strain INVSC-1. Yeast cells with the plasmid pYES-d6Elo(Pir) and pYES2.1/V5-His-TOPO, respectively, were incubated for 12 h in liquid DOB-U medium at 28° C., 200 rpm, and then for a further 12 h in induction medium (DOB-U+2% (w/v) galactose+2% (w/v) raffinose) and 250 μM of fatty acids added to the medium. The specificity and activity of the gene to be characterized can be determined with reference to the added fatty acids.
as §1, §2
(§4) Table 3 describes the reaction of fatty acids by the plasmids which had been introduced into the yeasts. The conversion rates for the various exogenously added fatty acids are indicated in percent elongation efficiency. The blank vector pYES2.1/V5-His-TOPO acts as control for the activity of the gene sequence D6Elo(Pir). Fatty acids which have been formed in the yeasts with the vector pYES-D6Elo(Pir), but not in yeasts with the vector pYES2.1/V5-His-TOPO, can be attributed to the activity of the D6Elo(Pir) translation product.

[2] = test system: yeast strain INVSC-1 with empty vector pYES2.1/V5-His-TOPO; assay: Vector control of Example 4: yeast with empty vector pYES2.1/V5-His-TOPO fed fatty acids; assay type: cell-based; conditions: blank vector control; 250 μM fatty acid fed to yeast INVSC-1, 12 h induction medium
Protocol: as §3, §1, §2, §4

D5Elo(Eg) = assay type: cell-based, Euglena gracilis
Protocol: Plasmid pYES-D5Elo(Eg) was then transformed into the yeast strain INVSC-1 (Invitrogen) following the manufacturer's instructions and selected on plates with DOB-U agar on the basis of uracil auxotrophism. […] In parallel, the empty vector pYES2.1/V5-His-TOPO was transformed in the abovedescribed manner into competent yeast cells of the strain INVSC-1. Yeast cells with the plasmid pYES-D5Elo(Eg) and pYES2.1/V5-His-TOPO were incubated for 12 h in liquid DOB-U medium at 28° C., 200 rpm, and then for a further 12 h in induction medium (DOB-U+2% (w/v) galactose+2% (w/v) raffinose) and 250 μM of fatty acids added to the medium. The specificity and activity of the gene to be characterized can be determined with reference to the added fatty acids. […]
The substrate specificity of D5Elo(Eg) [SEQ ID NO: 8] was determined after expression and feeding of various fatty acids (FIG. 2). […] In FIG. 2A, yeasts were analyzed which had not been fed exogenously added fatty acids. […] In FIG. 2C, the yeast cells were analyzed after transformation with plasmid pYES-D5Elo(Eg) and feeding the fatty acid 20:4Δ5,8,11,14. […] In FIG. 2D, the yeast cells were analyzed after transformation with plasmid pYES-D5Elo(Eg) and feeding the fatty acid 20:5Δ5,8,11,14,17.

[3] = test system: yeast strain INVSC-1 with empty vector pYES2.1/V5-His-TOPO; assay: Vector control of Example 6: yeast with empty vector pYES2.1/V5-His-TOPO fed fatty acids; assay type: cell-based; conditions: 250 μM fatty acid fed to yeast INVSC-1, 12 h induction medium
Protocol: Plasmid pYES-D5Elo(Eg) was then transformed into the yeast strain INVSC-1 (Invitrogen) following the manufacturer's instructions and selected on plates with DOB-U agar on the basis of uracil auxotrophism. Positive colonies were identified by PCR. To this end, in each case 1 μl of defrosted cells, 200 μM dNTPs, 2.5 U Taq polymerase and 100 pmol of each primer were used to carry out in a total volume of 50 μl. The PCR conditions are as follows: first denaturation at 95° C. for 5 minutes, followed by 30 cycles of 30 seconds at 94° C., 1 minute at 55° C. and 2 minutes at 72° C., and a last elongation step for 10 minutes at 72° C. In parallel, the empty vector pYES2.1/V5-His-TOPO was transformed in the abovedescribed manner into competent yeast cells of the strain INVSC-1. Yeast cells with the plasmid pYES-D5Elo(Eg) and pYES2.1/V5-His-TOPO were incubated for 12 h in liquid DOB-U medium at 28° C., 200 rpm, and then for a further 12 h in induction medium (DOB-U+2% (w/v) galactose+2% (w/v) raffinose) and 250 μM of fatty acids added to the medium. The specificity and activity of the gene to be characterized can be determined with reference to the added fatty acids.
The yeast cells from the main cultures were harvested by centrifugation (100×g, 5 min, 20° C.) and washed with 100 mM NaHCO3, pH 8.0 to remove residual medium and fatty acids. […]

SMILES	Elongation efficiency as a percentage, D9Elo(Ro) (D9Elo(Ro)) [%]	Elongation efficiency as a percentage, pYes2.1/V5-His-TOPO [1] [%]	Elongation efficiency in percent, pYES-D6Elo(Pir) (D6Elo(Pir)) [%]	Elongation efficiency in percent, pYES2.1/V5-His-TOPO [2] [%]	Elongation efficiency as a percentage, D5Elo(EG) (D5Elo(Eg)) [%]	Elongation efficiency as a percentage, pYes2.1/V5-His-TOPO [3] [%]	Substrate preference of D6Elo(Pir), in words (D6Elo(Pir); yeast feeding, summary of Table 3)	Elongation efficiency as a percentage, D5Elo(EG) (D5Elo(Eg); 250 μM fatty acid fed to transformed yeast INVSC-1, 12 h induction medium) [%]
CCCCCC/C=C\CCCCCCCC(=O)O [16:1A9]	36.6	2.4						
CCCCCCCC/C=C\CCCCCCCC(=O)O [18:1Δ9, oleic acid]	8.3	0.0						
CCCCCC/C=C\CCCCCCCCCC(=O)O [18:1Δ11, cis-vaccenic acid]			28.6	0.0				
CCCCC/C=C\C/C=C\CCCCCCCC(=O)O [18:2Δ9, 12, linoleic acid]	19.3	0.0	11.1	1.1				
CCCCC/C=C\C/C=C\C/C=C\CCCCC(=O)O [18:3Δ6, 9, 12, γ-linolenic acid]			27.1	1.3	2.9	0.9		
CC/C=C\C/C=C\C/C=C\CCCCCCCC(=O)O [18:3Δ9, 12, 15, linolenic acid]	49.3	0.0	19.1	1.4				
CC/C=C\C/C=C\C/C=C\C/C=C\CCCCC(=O)O [18:4Δ6, 9, 12, 15, stearidonic acid]			38.7	1.2				
CCCCC/C=C\C/C=C\C/C=C\C/C=C\CCCC(=O)O [20:4Δ5, 8, 11, 14, arachidonic acid]			6.7	0.0		0.0	Less activity	46.1
